# Laboratory results: article PMC5218480 (PLoS ONE, 2017)
# Tested on: MV-4-11 cells
# Assay: Gene expression microarray analysis (Affymetrix PrimeView) and GSEA
# Format: cell-based, human
# Parameters: RFU PODN (11730768_x_at) / Fold change /veh PODN (11730768_x_at) / RFU LINC00158 (11744669_a_at) / Fold change /veh LINC00158 (11744669_a_at) / RFU DUSP10 (11751237_a_at) / Fold change /veh DUSP10 (11751237_a_at) / RFU ID3 (11757404_x_at) / Fold change /veh ID3 (11757404_x_at) / RFU PLEKHG5 (11737974_s_at) / Fold change /veh PLEKHG5 (11737974_s_at) / RFU LRRC4B (11730491_at) / Fold change /veh LRRC4B (11730491_at) / RFU GIMAP4 (11747438_a_at) / Fold change /veh GIMAP4 (11747438_a_at) / RFU KRT8 (11758183_x_at) / Fold change /veh KRT8 (11758183_x_at) / RFU CNN1 (11734310_a_at) / Fold change /veh CNN1 (11734310_a_at) / RFU VPS37D (11726825_at) / Fold change /veh VPS37D (11726825_at) / RFU C10orf10 (11716522_x_at) / Fold change /veh C10orf10 (11716522_x_at) / RFU KIR2DL2 /// KIR2DL4 /// KIR2DL5A /// KIR2DL5B /// KIR2DS1 /// KIR2DS2 /// KIR2DS3 /// KIR2DS4 /// KIR3DL3 /// KIR3DL3 /// KIR3DS1 (11738374_at) / Fold change /veh KIR2DL2 /// KIR2DL4 /// KIR2DL5A /// KIR2DL5B /// KIR2DS1 /// KIR2DS2 /// KIR2DS3 /// KIR2DS4 /// KIR3DL3 /// KIR3DL3 /// KIR3DS1 (11738374_at) / RFU C1QL1 (11718748_at) / Fold change /veh C1QL1 (11718748_at) / RFU TMPRSS4 (11747572_a_at) / Fold change /veh TMPRSS4 (11747572_a_at) / RFU HAMP (11756126_x_at) / Fold change /veh HAMP (11756126_x_at) / RFU RNFT2 (11725882_a_at) / Fold change /veh RNFT2 (11725882_a_at) / RFU NR4A2 (11747474_a_at) / Fold change /veh NR4A2 (11747474_a_at) / RFU ABCC12 (11746883_a_at) / Fold change /veh ABCC12 (11746883_a_at) / RFU TMEM136 (11760407_x_at) / Fold change /veh TMEM136 (11760407_x_at) / RFU CLDN22 /// WWC2 (11732394_at) / Fold change /veh CLDN22 /// WWC2 (11732394_at) / RFU HLA-DPB1 (11760878_x_at) / Fold change /veh HLA-DPB1 (11760878_x_at) / RFU SPINT1 (11716480_a_at) / Fold change /veh SPINT1 (11716480_a_at) / RFU GAP43 (11754022_s_at) / Fold change /veh GAP43 (11754022_s_at) / RFU A4GNT (11735810_at) / Fold change /veh A4GNT (11735810_at) / RFU PRB3 (11715151_x_at) / Fold change /veh PRB3 (11715151_x_at) / RFU TUBB4B (11761932_at) / Fold change /veh TUBB4B (11761932_at) / RFU CAPN14 (11732068_a_at) / Fold change /veh CAPN14 (11732068_a_at) / RFU TMCC2 (11721928_a_at) / Fold change /veh TMCC2 (11721928_a_at) / RFU IRGQ (11745062_a_at) / Fold change /veh IRGQ (11745062_a_at) / RFU FAM174B (11720279_a_at) / Fold change /veh FAM174B (11720279_a_at) / RFU TMPRSS4 (11748680_a_at) / Fold change /veh TMPRSS4 (11748680_a_at) / RFU FAM212B (11763350_a_at) / Fold change /veh FAM212B (11763350_a_at) / RFU PLEKHG5 (11743358_a_at) / Fold change /veh PLEKHG5 (11743358_a_at) / RFU ZSCAN30 (11745921_a_at) / Fold change /veh ZSCAN30 (11745921_a_at) / RFU CMKLR1 (11741424_a_at) / Fold change /veh CMKLR1 (11741424_a_at) / RFU LOC101060620 /// MAPK8IP1 (11723275_at) / Fold change /veh LOC101060620 /// MAPK8IP1 (11723275_at) / RFU SPTSSB (11747773_x_at) / Fold change /veh SPTSSB (11747773_x_at) / RFU PRSS12 (11739890_at) / Fold change /veh PRSS12 (11739890_at) / RFU BIN1 (11741810_x_at) / Fold change /veh BIN1 (11741810_x_at) / RFU WNT11 (11732464_a_at) / Fold change /veh WNT11 (11732464_a_at) / RFU C10orf10 (11716521_a_at) / Fold change /veh C10orf10 (11716521_a_at) / RFU C5orf56 (11738089_at) / Fold change /veh C5orf56 (11738089_at) / RFU CYB561 (11721691_x_at) / Fold change /veh CYB561 (11721691_x_at) / RFU ANKRD19P (11752326_a_at) / Fold change /veh ANKRD19P (11752326_a_at) / RFU OR2T12 /// OR2T33 /// OR2T8 (11738714_s_at) / Fold change /veh OR2T12 /// OR2T33 /// OR2T8 (11738714_s_at) / RFU VCAN (11748164_a_at) / Fold change /veh VCAN (11748164_a_at) / RFU JSRP1 (11732532_at) / Fold change /veh JSRP1 (11732532_at) / RFU KRTAP10-11 (11738290_x_at) / Fold change /veh KRTAP10-11 (11738290_x_at) / RFU MYO3A (11730013_a_at) / Fold change /veh MYO3A (11730013_a_at) / RFU EBF3 (11725865_a_at) / Fold change /veh EBF3 (11725865_a_at) / RFU CAMK2N1 (11719241_x_at) / Fold change /veh CAMK2N1 (11719241_x_at) / RFU C5orf56 (11738088_a_at) / Fold change /veh C5orf56 (11738088_a_at) / RFU OLFML3 (11715873_a_at) / Fold change /veh OLFML3 (11715873_a_at) / RFU LOC100653217 /// NTM (11731650_a_at) / Fold change /veh LOC100653217 /// NTM (11731650_a_at) / RFU MAPK11 (11762145_a_at) / Fold change /veh MAPK11 (11762145_a_at) / RFU FIZ1 (11724087_x_at) / Fold change /veh FIZ1 (11724087_x_at) / RFU OASL (11726364_x_at) / Fold change /veh OASL (11726364_x_at) / RFU SOX15 (11748057_x_at) / Fold change /veh SOX15 (11748057_x_at) / RFU CD79A (11719716_a_at) / Fold change /veh CD79A (11719716_a_at) / RFU HIST1H1D (11736915_at) / Fold change /veh HIST1H1D (11736915_at) / RFU CASKIN2 (11723855_a_at) / Fold change /veh CASKIN2 (11723855_a_at) / RFU LOC730098 (11760151_x_at) / Fold change /veh LOC730098 (11760151_x_at) / RFU OR4N2 (11742367_at) / Fold change /veh OR4N2 (11742367_at) / RFU PRRT2 (11749266_a_at) / Fold change /veh PRRT2 (11749266_a_at) / RFU SNX32 (11753110_a_at) / Fold change /veh SNX32 (11753110_a_at) / RFU CDHR5 (11726645_a_at) / Fold change /veh CDHR5 (11726645_a_at) / RFU RCAN1 (11760418_a_at) / Fold change /veh RCAN1 (11760418_a_at) / RFU FAM167A (11723789_a_at) / Fold change /veh FAM167A (11723789_a_at) / RFU FAM26E (11764081_at) / Fold change /veh FAM26E (11764081_at) / RFU ISYNA1 (11749810_s_at) / Fold change /veh ISYNA1 (11749810_s_at) / RFU ACY1 (11761880_at) / Fold change /veh ACY1 (11761880_at) / RFU 11764098_at / Fold change /veh 11764098_at / RFU SAMD14 (11745864_x_at) / Fold change /veh SAMD14 (11745864_x_at) / RFU NPB (11741838_a_at) / Fold change /veh NPB (11741838_a_at) / RFU TMPRSS6 (11731388_a_at) / Fold change /veh TMPRSS6 (11731388_a_at) / RFU KRTAP10-2 (11738614_at) / Fold change /veh KRTAP10-2 (11738614_at) / RFU ARHGAP8 /// PRR5-ARHGAP8 (11727945_x_at) / Fold change /veh ARHGAP8 /// PRR5-ARHGAP8 (11727945_x_at) / RFU KRTAP5-7 /// NADSYN1 (11734609_at) / Fold change /veh KRTAP5-7 /// NADSYN1 (11734609_at) / RFU RASL12 (11751679_a_at) / Fold change /veh RASL12 (11751679_a_at) / RFU CDKN2B (11736163_a_at) / Fold change /veh CDKN2B (11736163_a_at) / RFU PRF1 (11729649_at) / Fold change /veh PRF1 (11729649_at) / RFU, ZNF638 /// ZNF638-IT1 / Fold change vs veh, ZNF638 /// ZNF638-IT1 / RFU, PANK3 / Fold change vs veh, PANK3 / RFU, SH3YL1 / Fold change vs veh, SH3YL1 / RFU, ZEB2 / Fold change vs veh, ZEB2 / RFU, NRIP1 / Fold change vs veh, NRIP1 / RFU, PTTG1IP / Fold change vs veh, PTTG1IP / RFU, CAPN2 / Fold change vs veh, CAPN2 / RFU, MED14 / Fold change vs veh, MED14 / RFU, SNORA58 / Fold change vs veh, SNORA58 / RFU, C1orf63 / Fold change vs veh, C1orf63 / RFU, LRRFIP1 / Fold change vs veh, LRRFIP1 / RFU, NDUFAF7 / Fold change vs veh, NDUFAF7 / RFU, SLC12A2 / Fold change vs veh, SLC12A2 / RFU, IBTK / Fold change vs veh, IBTK / RFU, ESF1 / Fold change vs veh, ESF1 / Fold change vs veh, TMEM50B / RFU, TAOK1 / Fold change vs veh, TAOK1 / RFU, ACBD3 / Fold change vs veh, ACBD3 / RFU, TMA16 / Fold change vs veh, TMA16 / RFU, RWDD3 / Fold change vs veh, RWDD3 / RFU, BCAT1 / Fold change vs veh, BCAT1 / RFU, EDEM3 / Fold change vs veh, EDEM3 / RFU, TMEM33 / Fold change vs veh, TMEM33 / RFU, WDR75 / Fold change vs veh, WDR75 / RFU, AHCTF1 / Fold change vs veh, AHCTF1 / RFU, TFRC / Fold change vs veh, TFRC / RFU, ZDHHC17 / Fold change vs veh, ZDHHC17 / RFU, NOM1 / Fold change vs veh, NOM1 / RFU, ARL8B / Fold change vs veh, ARL8B / RFU, ZBTB11 / Fold change vs veh, ZBTB11 / RFU, TAMM41 / Fold change vs veh, TAMM41 / RFU, KIAA1704 /// LOC100996395 / Fold change vs veh, KIAA1704 /// LOC100996395 / RFU, ING1 / Fold change vs veh, ING1 / RFU, TRMT61B / Fold change vs veh, TRMT61B / RFU, FUBP3 / Fold change vs veh, FUBP3 / RFU, TP53 / Fold change vs veh, TP53 / RFU, TNKS2 / Fold change vs veh, TNKS2 / RFU, ZFP14 / Fold change vs veh, ZFP14 / RFU, ACTR2 / Fold change vs veh, ACTR2 / RFU, PPP3R1 / Fold change vs veh, PPP3R1 / RFU, PIK3R1 / Fold change vs veh, PIK3R1 / RFU, HNRNPA1 / Fold change vs veh, HNRNPA1 / RFU, RNF170 / Fold change vs veh, RNF170 / RFU, ZNF28 / Fold change vs veh, ZNF28 / RFU, RNGTT / Fold change vs veh, RNGTT / RFU, OGT / Fold change vs veh, OGT / RFU, BRD1 / Fold change vs veh, BRD1 / RFU, MARS / Fold change vs veh, MARS / RFU, ZNF655 / Fold change vs veh, ZNF655 / RFU, FAHD1 / Fold change vs veh, FAHD1 / RFU, BDP1 / Fold change vs veh, BDP1 / RFU, LRRCC1 / Fold change vs veh, LRRCC1 / RFU, ARID1A / Fold change vs veh, ARID1A / RFU, ZNF146 / Fold change vs veh, ZNF146 / RFU, ZNF330 / Fold change vs veh, ZNF330 / RFU, GPN3 / Fold change vs veh, GPN3 / RFU, C9orf123 / Fold change vs veh, C9orf123 / RFU, N4BP2L2 / Fold change vs veh, N4BP2L2 / RFU, ARFIP1 / Fold change vs veh, ARFIP1 / RFU, FAM179B / Fold change vs veh, FAM179B / RFU, BCL10 / Fold change vs veh, BCL10 / RFU, UHRF1BP1L / Fold change vs veh, UHRF1BP1L / RFU, BET1 / Fold change vs veh, BET1 / RFU, CNOT2 / Fold change vs veh, CNOT2 / RFU, ZNF268 / Fold change vs veh, ZNF268 / Fold change vs veh, ZNF507 / RFU, DGCR2 / Fold change vs veh, DGCR2 / RFU, WDSUB1 / Fold change vs veh, WDSUB1 / Fold change vs veh, HSP90B1 /// MIR3652 / RFU, ADSS / Fold change vs veh, ADSS / RFU, GK / Fold change vs veh, GK / RFU, ZNF148 / Fold change vs veh, ZNF148 / RFU, TAF9 / Fold change vs veh, TAF9 / RFU, SLC1A5 / Fold change vs veh, SLC1A5 / RFU, SLMO2 / Fold change vs veh, SLMO2 / RFU, ABCC4 / Fold change vs veh, ABCC4 / RFU, LOC101060439 /// RAP1B / Fold change vs veh, LOC101060439 /// RAP1B / RFU, RFX7 / Fold change vs veh, RFX7 / RFU, GTPBP10 / Fold change vs veh, GTPBP10 / RFU, CNEP1R1 / Fold change vs veh, CNEP1R1 / RFU, BIVM-ERCC5 /// ERCC5 / Fold change vs veh, BIVM-ERCC5 /// ERCC5 / RFU, ILF3 / Fold change vs veh, ILF3 / RFU 11762660_at / Fold change /veh 11762660_at / RFU VCAN (11757783_s_at) / Fold change /veh VCAN (11757783_s_at) / RFU DDX43 (11728927_at) / Fold change /veh DDX43 (11728927_at) / RFU KRT8 (11758188_x_at) / Fold change /veh KRT8 (11758188_x_at) / RFU NKD1 (11759106_at) / Fold change /veh NKD1 (11759106_at) / RFU SRD5A1 (11742802_a_at) / Fold change /veh SRD5A1 (11742802_a_at) / RFU TPSAB1 /// TPSB2 (11721975_s_at) / Fold change /veh TPSAB1 /// TPSB2 (11721975_s_at) / RFU GSTM3 (11746129_a_at) / Fold change /veh GSTM3 (11746129_a_at) / RFU IL23R (11737362_x_at) / Fold change /veh IL23R (11737362_x_at) / RFU TMEM51 (11727254_a_at) / Fold change /veh TMEM51 (11727254_a_at) / RFU PIWIL2 (11732686_x_at) / Fold change /veh PIWIL2 (11732686_x_at) / RFU ORM1 (11744905_x_at) / Fold change /veh ORM1 (11744905_x_at) / RFU CCDC152 (11743942_at) / Fold change /veh CCDC152 (11743942_at) / RFU ECM1 (11717891_a_at) / Fold change /veh ECM1 (11717891_a_at) / RFU IL23R (11748794_a_at) / Fold change /veh IL23R (11748794_a_at) / RFU TNFAIP8L3 (11732012_x_at) / Fold change /veh TNFAIP8L3 (11732012_x_at) / RFU MBOAT4 (11741988_at) / Fold change /veh MBOAT4 (11741988_at) / RFU 11764193_at / Fold change /veh 11764193_at / RFU TMEM53 (11763286_at) / Fold change /veh TMEM53 (11763286_at) / RFU MAGEB2 (11727129_at) / Fold change /veh MAGEB2 (11727129_at) / RFU TMEM200A (11744735_a_at) / Fold change /veh TMEM200A (11744735_a_at) / RFU CCDC152 (11751479_a_at) / Fold change /veh CCDC152 (11751479_a_at) / RFU FAM211A (11726209_a_at) / Fold change /veh FAM211A (11726209_a_at) / RFU RGS16 (11746705_a_at) / Fold change /veh RGS16 (11746705_a_at) / RFU VCAN (11755009_s_at) / Fold change /veh VCAN (11755009_s_at) / RFU RHOB (11743442_s_at) / Fold change /veh RHOB (11743442_s_at) / RFU RGS16 (11720943_a_at) / Fold change /veh RGS16 (11720943_a_at) / RFU RGS16 (11720944_at) / Fold change /veh RGS16 (11720944_at) / RFU, VPS4B / Fold change vs veh, VPS4B / RFU, CREB1 / Fold change vs veh, CREB1 / RFU, DNAJC13 / Fold change vs veh, DNAJC13 / RFU, GNAQ / Fold change vs veh, GNAQ / RFU, CDK5R1 / Fold change vs veh, CDK5R1 / RFU, ZRANB3 / Fold change vs veh, ZRANB3 / RFU, CUL4A / Fold change vs veh, CUL4A / RFU, CCNY / Fold change vs veh, CCNY / RFU, UFL1 / Fold change vs veh, UFL1 / RFU, COG3 / Fold change vs veh, COG3 / RFU, DIAPH2 / Fold change vs veh, DIAPH2 / RFU, SKA2 / Fold change vs veh, SKA2 / RFU, AFF3 / Fold change vs veh, AFF3 / RFU, LMF1 / Fold change vs veh, LMF1 / RFU, IPO11 / Fold change vs veh, IPO11 / RFU, DFFB / Fold change vs veh, DFFB / RFU, FOXP1 / Fold change vs veh, FOXP1 / RFU, CARD8 / Fold change vs veh, CARD8 / RFU, STRN3 / Fold change vs veh, STRN3 / RFU, ADK / Fold change vs veh, ADK / RFU, RASSF2 / Fold change vs veh, RASSF2 / RFU, WIPF1 / Fold change vs veh, WIPF1 / RFU, LARP1B / Fold change vs veh, LARP1B / RFU, RASA1 / Fold change vs veh, RASA1 / RFU, RB1 / Fold change vs veh, RB1 / RFU, PPFIA1 / Fold change vs veh, PPFIA1 / RFU, MAT2A / Fold change vs veh, MAT2A / RFU, CCT5 / Fold change vs veh, CCT5 / RFU, WDR92 / Fold change vs veh, WDR92 / RFU, CUX1 / Fold change vs veh, CUX1 / RFU, TTC7A / Fold change vs veh, TTC7A / RFU, TMEM135 / Fold change vs veh, TMEM135 / RFU, DEPTOR / Fold change vs veh, DEPTOR / RFU, CPM / Fold change vs veh, CPM / RFU, DNAJB6 / Fold change vs veh, DNAJB6 / RFU, CACNA2D3 / Fold change vs veh, CACNA2D3 / RFU, DTX4 / Fold change vs veh, DTX4 / RFU, TFCP2 / Fold change vs veh, TFCP2 / RFU, GMCL1 /// GMCL1P1 / Fold change vs veh, GMCL1 /// GMCL1P1 / RFU, AEBP2 / Fold change vs veh, AEBP2 / RFU, SNHG1 /// SNORD22 /// SNORD25 /// SNORD26 /// SNORD27 /// SNORD28 /// SNORD29 /// SNORD31 / Fold change vs veh, SNHG1 /// SNORD22 /// SNORD25 /// SNORD26 /// SNORD27 /// SNORD28 /// SNORD29 /// SNORD31 / Fold change (Aza/veh), C12orf56 (ProbeSet 11735607_a_at) / Fold change (ACY-1035/veh), C12orf56 (ProbeSet 11735607_a_at) / Fold change (Aza/veh), FGFR1OP (ProbeSet 11751329_s_at) / Fold change (ACY-1035/veh), FGFR1OP (ProbeSet 11751329_s_at) / Fold change (Aza/veh), VPS36 (ProbeSet 11739960_a_at) / Fold change (ACY-1035/veh), VPS36 (ProbeSet 11739960_a_at) / RFU SYPL1 (11715823_x_at) / Fold change /veh SYPL1 (11715823_x_at) / RFU IGFBP7 (11715501_s_at) / Fold change /veh IGFBP7 (11715501_s_at) / RFU REEP3 (11722064_at) / Fold change /veh REEP3 (11722064_at) / RFU IGLL1 (11728026_x_at) / Fold change /veh IGLL1 (11728026_x_at): dose or concentration left out as unconfirmed
# Details: MV-4-11 cells, 48 hours
smiles,measurement,value
Nc1ncn([C@@H]2O[C@H](CO)[C@@H](O)[C@H]2O)c(=O)n1 [azacitidine],Fold change /veh VCAN (11757783_s_at),1.30
